Assay [1] concerns the target GDP-bound KRAS protein (aa 1-169), containing both G12C and C118A amino acid substitutions (Homo sapiens (Human), UniProt P01116, C118A/G12C). The experiment in a line: Coupled Nucleotide Exchange Assay. It is filed as biochemical. Here is the method:
(§1) For compounds in Table 9, the following assay conditions were employed:
Coupled Nucleotide Exchange Assay:
The assay plates were then read on a PerkinElmer EnVision Multilabel Reader, using AlphaScreen® technology, and data were analyzed using a 4-parameter logistic model to calculate IC50 values.

Assay [2] has as its system Phosphorylation of ERK1/2 in MIA PaCa-2 cells. The experiment in a line: Phospho-ERK1/2 MSD Assay. It is filed as cell-based. To be noted: Homo sapiens, MiaPaCa-2 cells. Here is the method: as §1
Phospho-ERK1/2 MSD Assay:
Sixteen hours prior to compound treatment, MIA PaCa-2 cells were seeded in 96-well cell culture plates at a density of 25,000 cells/well and incubated at 37° C., 5% CO2. […] Following compound treatment, cells were stimulated with 10 ng/mL EGF (Roche 11376454001) for 10 min, washed with ice-cold Dulbecco's phosphate-buffered saline, no Ca^2+ or Mg^2+ (ThermoFisher Scientific 14190144), and then lysed in RIPA buffer (50 mM Tris-HCl pH 7.5, 1% Igepal, 0.5% sodium deoxycholate, 150 mM NaCl, and 0.5% sodium dodecyl sulfate) containing protease inhibitors (Roche 4693132001) and phosphatase inhibitors (Roche 4906837001). […] Assay plates were read on a Meso Scale Discovery Sector Imager 6000, and data were analyzed using a 4-parameter logistic model to calculate IC50 values.

Assay [3] has as its system Phosphorylation of ERK1/2 in A549 cells. The experiment in a line: Phospho-ERK1/2 MSD Assay (A549). To be noted: Homo sapiens. It is filed as cell-based.
Where [4] appears, read: read-out: Coupled Exchange IC50 (2 h), 2 h compound pre-incubation.
[5] abbreviates: read-out: Coupled Exchange IC50 (20 h), 20 h compound pre-incubation.
Setting [6] is: MIA PaCa-2, 4 h, read-out: pERK IC50 (4 h, MiaPaCa-2), 4 h compound treatment.
Setting [7] is: A549, 4 h, read-out: pERK IC50 (4 h, A549), 4 h compound treatment.
The mark [8] stands for this setting: MIA PaCa-2, read-out: pERK IC50 (4 h), 4 h compound treatment.
[9] abbreviates: read-out: pERK IC50 (4 h), 4 h compound treatment.
[10] abbreviates: read-out: Coupled Exchange IC50 (5 min), 5 min compound pre-incubation.

The structures appear in SMILES notation. pIC50: −log10 of the molar value. Read-outs that look alike come from different tables or passages of the source.

Chain of GDP-bound KRAS protein (aa 1-169), containing both G12C and C118A amino acid substitutions (P01116 other isoform, or with tags, fused parts or gaps G12C/C118A): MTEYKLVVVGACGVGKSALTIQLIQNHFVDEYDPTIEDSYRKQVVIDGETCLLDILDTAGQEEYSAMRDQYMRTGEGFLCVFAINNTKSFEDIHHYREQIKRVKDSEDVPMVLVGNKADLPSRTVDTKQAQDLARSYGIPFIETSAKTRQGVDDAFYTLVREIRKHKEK

For orientation: pIC50 means the negative decadic logarithm of the IC50, by convention in mol/L. Turning to `C=CC(=O)N1CC(NC(=O)Cn2cc(C(=O)N3CCc4c(Br)cc(C)cc4C3)c3cc(Cl)cc(Cl)c32)C1` [Example 92], the pIC50 was 6.41 in assay [1] (setting [4]), 6.74 in assay [1] (setting [5]), 4.78 in assay [2] (setting [6]) and less than 4.00 in assay [3] (setting [7]).
`C=CC(=O)N1CC(NC(=O)Cn2c(C)c(-c3ccccc3N(C)C)c3cc(Cl)ccc32)C1` [Example 98]: the values for the pIC50 in assay [1] (setting [4]), in assay [2] (setting [8]) and in assay [3] (setting [9]) were 5.95, 4.74 and 4.88, respectively.
On to `C=CC(=O)N1CC(N(C)C(=O)Cn2c(C)c(C(=O)N3CCN(c4ccc(C#N)cn4)CC3)c3cc(Br)ccc32)C1` [Example 27], for which the pIC50 in assay [1] (setting [4]) is 6.11; in assay [1] (setting [5]), 6.62; in assay [2] (setting [6]) it was 5.60; in assay [3] (setting [7]), less than 4.00.
`C=CC(=O)N1CC(NC(=O)Cn2cc(I)c3cc(Br)ccc32)C1` [Example 85]: the pIC50 was 4.63 in assay [1] (setting [10]); 5.42 in assay [1] (setting [4]); 6.31 in assay [1] (setting [5]); 4.85 in assay [2] (setting [8]); less than 4.00 in assay [3] (setting [9]).
In the case of `C=CC(=O)N1CC(NC(=O)Cn2cc(C(=O)N(C)CC(=O)Nc3ccc(Cl)c(C(F)(F)F)c3)c3cc(Br)ccc32)C1` [Example 158], the negative-log IC50 (pIC50) in assay [1] (setting [4]) is 6.36; in assay [1] (setting [5]), 6.80; in assay [2] (setting [6]), 4.27; in assay [3] (setting [7]), less than 4.00.
As to `C=CC(=O)N1CC(NC(=O)Cn2ccc3cc(Cl)cc(Cl)c32)C1` [Example 165], the pIC50 in assay [1] (setting [4]) was 4.88; in assay [1] (setting [5]), 5.58; in assay [2] (setting [8]), less than 4.00; in assay [3] (setting [9]), less than 4.00.
As for `C=CC(=O)N1CC(NC(=O)Cn2c(C)c(C(=O)N3CCc4c(cccc4OC)C3)c3cc(Cl)ccc32)C1` [Example 41], the pIC50 in assay [1] (setting [4]) is 6.43; in assay [1] (setting [5]), 6.92; in assay [2] (setting [6]), 5.45; in assay [3] (setting [7]) it was less than 4.00.
As for `C=CC(=O)N1CC(NC(=O)Cn2c(C)c(C(=O)N3CCc4c(ccnc4OC)C3)c3cc(Br)ccc32)C1` [Example 12], the pIC50 was 6.29 in assay [1] (setting [4]), 6.77 in assay [1] (setting [5]), 5.78 in assay [2] (setting [6]) and less than 4.00 in assay [3] (setting [7]).
Turning to `C=CC(=O)N1CC(NC(=O)Cn2cc(C(=O)N3CCc4c(cccc4OC)C3)c3cc(Br)ccc32)C1` [Example 76], the negative-log IC50 (pIC50) in assay [1] (setting [4]) was 6.19; in assay [1] (setting [5]), 6.77; in assay [2] (setting [6]), 4.94; in assay [3] (setting [7]) it was less than 4.00.
Regarding `C=CC(=O)N1CC(NC(=O)Cn2c3c(c4cc(Br)ccc42)CN(C(=O)OCc2ccccc2)CC3)C1` [Example 141], the pIC50 in assay [1] (setting [4]) was 5.14; in assay [1] (setting [5]) it was 5.82; in assay [2] (setting [8]) it was 4.37; in assay [3] (setting [9]) it was 4.71.
With `C=CC(=O)N1CC(NC(=O)Cn2cc(C(=O)N3CCc4c(C)cccc4C3)c3cc(Br)ccc32)C1` [Example 86], the pIC50 in assay [1] (setting [4]) was 6.17; in assay [1] (setting [5]) it was 6.77; in assay [2] (setting [6]) it was 4.85; in assay [3] (setting [7]), less than 4.00.
In the case of `C=CC(=O)N1CC(NC(=O)Cn2cc(I)c3cc(Br)cc(CC)c32)C1` [Example 87], the negative-log IC50 (pIC50) in assay [1] (setting [4]) is 5.32; in assay [1] (setting [5]) it was 6.04; in assay [2] (setting [8]) it was 4.83; in assay [3] (setting [9]), less than 4.00.
As for `C=CC(=O)N1CC(NC(=O)Cn2cc(-c3ccccc3-c3ccccc3)c3cc(Cl)ccc32)C1` [Example 112], the pIC50 in assay [1] (setting [10]) was 5.40; in assay [1] (setting [4]), 5.63; in assay [1] (setting [5]) it was 6.15; in assay [2] (setting [8]) it was 4.59; in assay [3] (setting [9]), less than 4.00.
On to `C=CC(=O)N1CC(NC(=O)Cn2c(C)c(-c3cccnc3OC(C)C)c3cc(Br)ccc32)C1` [Example 115], for which the results for the pIC50 in assay [1] (setting [4]), in assay [2] (setting [8]) and in assay [3] (setting [9]) were 5.56, 4.55 and less than 4.00, respectively.
As for `C=CC(=O)N1CC(NC(=O)C(C)(C)n2c(C)c(C(=O)N3CCc4c(cccc4OC)C3)c3cc(Cl)ccc32)C1` [Example 131], the pIC50 in assay [1] (setting [4]) is 5.26; in assay [1] (setting [5]) it was 5.98; in assay [2] (setting [8]) it was 4.43; in assay [3] (setting [9]), 4.30.
In the case of `C=CC(=O)N1CC(NC(=O)Cn2cc(C(=O)NCC(c3sccc3C)N(C)C)c3cc(Br)ccc32)C1` (stereo not drawn) [Example 127], the negative-log IC50 (pIC50) in assay [2] (setting [6]) is 4.46; in assay [3] (setting [7]), less than 4.00.
`C=CC(=O)N1CC(NC(=O)C(C)n2c(C)c(C(=O)N3CCc4c(cccc4OC)C3)c3cc(Cl)ccc32)C1` (stereo not drawn) [Example 126]: the values for the pIC50 in assay [2] (setting [6]) and in assay [3] (setting [7]) were 4.47 and 4.32, respectively.
For `C=CC(=O)N1CC(NC(=O)Cn2cc(C(=O)OC)c3cc(Br)ccc32)C1` [Example 108], the pIC50 was 4.63 in assay [2] (setting [6]) and less than 4.00 in assay [3] (setting [7]).
The like results for `C=CC(=O)N1CC(NC(=O)Cn2cc(C(=O)N3CCN(c4ccc([N+](=O)[O-])cc4)CC3)c3cc(Br)ccc32)C1` [Example 166] were, in that order, less than 4.00 and less than 4.00.
`C=CC(=O)N1CC(NC(=O)Cn2c(C3CC3)c(C(=O)N3CCOC(C)(c4ccccc4)C3)c3cc(Cl)cc(C)c32)C1` (stereo not drawn) [Example 31]: the values for the pIC50 in assay [2] (setting [6]) and in assay [3] (setting [7]) were 5.57 and less than 4.00, respectively.
Regarding `C=CC(=O)N1CC(NC(=O)Cn2c(C)c(C(=O)N3CCN(c4ccc(Br)cn4)CC3)c3cc(Br)ccc32)C1` [Example 34], the pIC50 in assay [2] (setting [6]) is 5.51; in assay [3] (setting [7]), less than 4.00.
As for `C=CC(=O)N1CC(N(C)C(=O)Cn2c(C)c(C(=O)N3CCN(c4ccc(C)cn4)CC3)c3cc(Br)ccc32)C1` [Example 47], the pIC50 in assay [2] (setting [6]) was 5.38; in assay [3] (setting [7]), less than 4.00.
The like results for `C=CC(=O)N1CC(NC(=O)Cn2c(C)c(C(=O)N3CCN(c4ccc(C)cn4)CC3)c3cc(Br)ccc32)C1` [Example 29] were, in that order, 5.58 and less than 4.00.
As for `C=CC(=O)N1CC(NC(=O)Cn2cc(C(=O)N3CCc4c(OC)ccc(Br)c4C3)c3cc(Br)ccc32)C1` [Example 157], the negative logarithm of the IC50 (pIC50) is 4.27 in assay [2] (setting [6]) and 4.37 in assay [3] (setting [7]).
In the same order, the values of `C=CC(=O)N1CC(NC(=O)Cn2cc(C(=O)N3CCN(c4cc(C)ccn4)CC3)c3cc(Br)ccc32)C1` [Example 79] are 4.93 and less than 4.00.
With `C=CC(=O)N1CC(NC(=O)Cn2c(C)c(C(=O)N3CCN(c4ccc(C#N)cn4)C[C@@H]3C)c3cc(Br)ccc32)C1` [Example 81], the pIC50 in assay [2] (setting [6]) was 4.90; in assay [3] (setting [7]), less than 4.00.
Regarding `C=CC(=O)N1CC(NC(=O)Cn2c3c(c4cc(Br)ccc42)CCN(C(=O)OC(C)(C)C)C3)C1` [Example 100], the pIC50 was 4.71 in assay [2] (setting [8]) and less than 4.48 in assay [3] (setting [9]).
Take `C=CC(=O)N1CC(NC(=O)Cn2cc(C(=O)N3CCN(c4ccc(OC)cn4)CC3)c3cc(Br)ccc32)C1` [Example 93]: the negative-log IC50 (pIC50) in assay [2] (setting [6]) was 4.78; in assay [3] (setting [7]) it was less than 4.00.
As for `C=CC(=O)N1CC(NC(=O)Cn2c(C)c(C(=O)N3CCOC(C)(C)C3)c3cc(Br)ccc32)C1` [Example 64], the results for the negative logarithm of the IC50 (pIC50) in assay [2] (setting [6]) and in assay [3] (setting [7]) were 5.11 and less than 4.00, respectively.
With `C=CC(=O)N1CC(NC(=O)Cn2c(C)c(C(=O)N3C(C)COCC3C)c3cc(Br)cc(C)c32)C1` (stereo not drawn) [Example 26], the pIC50 in assay [2] (setting [6]) is 5.61; in assay [3] (setting [7]) it was less than 4.48.

Values taken from patent publication US11053226B2, “KRAS G12C inhibitors and methods of using the same” (Amgen Inc., priority 2018, dated 2021).
